Literature values as cited in patent US20130029422A1, “Composite Substrate for 3D Cell Culture” (priority 2011, published 2013).

Details: during culture of breast cancer cells

For estrogen, the “extraction from cell culture medium by PDMS-based cell culture articles” value is given as “extract estrogen from cell culture medium”.
